Test results taken from ChEMBL document CHEMBL1142309, “The discovery of GSK221149A: a potent and selective oxytocin antagonist” (Bioorg Med Chem Lett, 2008).
In brackets after ≈: the same amount, converted by molar mass. Where a SMILES comes first, the peptide text is derived from it. Bridges are numbered along the chain shown (N, C = ends). [ ]: non-standard residue; d: D form. Orn = NCCC[C@H](N)C(=O)O; Mpa = O=C(O)CCS

Tests used:
[1] = molecular target: T1, Oxytocin receptor (Homo sapiens, UniProt P30559); assay: Binding affinity to human oxytocin receptor
T1 sequence (P30559 whole entry): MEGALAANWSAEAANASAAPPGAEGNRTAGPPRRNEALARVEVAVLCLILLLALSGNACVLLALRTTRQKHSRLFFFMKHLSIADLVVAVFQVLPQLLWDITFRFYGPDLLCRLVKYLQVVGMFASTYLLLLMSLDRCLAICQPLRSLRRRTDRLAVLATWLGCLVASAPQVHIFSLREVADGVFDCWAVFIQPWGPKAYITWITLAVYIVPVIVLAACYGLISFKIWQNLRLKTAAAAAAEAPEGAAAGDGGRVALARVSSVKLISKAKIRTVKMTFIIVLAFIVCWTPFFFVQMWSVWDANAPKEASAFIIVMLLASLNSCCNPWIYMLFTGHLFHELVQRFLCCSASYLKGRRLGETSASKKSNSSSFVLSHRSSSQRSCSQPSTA

[2] = Distribution coefficient, log D of the compound; assay type: physicochemical; conditions: chromatographic
[3] = Binding affinity to human serum albumin; assay type: ADME, cell-free; conditions: read-out: PB (converted)
[4] = Aqueous solubility of the compound; assay type: physicochemical; conditions: buffer
[5] = molecular target: Cytochrome P450 3A4 (Homo sapiens, UniProt P08684); assay: Inhibition of CYP3A4; assay type: ADME
[6] = Clearance in rat at 2 mg/kg, iv or 5 mg/kg, po; assay type: ADME, organism-based; conditions: in vivo
[7] = Half life in rat at 2 mg/kg, iv or 5 mg/kg, po; assay type: ADME, organism-based; conditions: in vivo
[8] = AUC in rat at 5 mg/kg, po in DMSO/PEG400 formulation; assay type: ADME, organism-based; parameters: dose 5 mg/kg, route oral; conditions: plasma
[9] = Bioavailability in rat at 2 mg/kg, iv or 5 mg/kg, po; assay type: ADME, organism-based; conditions: in vivo
[10] = molecular target: Vasopressin V1a receptor (Homo sapiens, UniProt P37288); assay: Binding affinity to human vasopressin V1a receptor
[11] = molecular target: T2, Vasopressin V1b receptor (Homo sapiens, UniProt P47901); assay: Binding affinity to human vasopressin V1b receptor
T2 sequence (P47901 whole entry): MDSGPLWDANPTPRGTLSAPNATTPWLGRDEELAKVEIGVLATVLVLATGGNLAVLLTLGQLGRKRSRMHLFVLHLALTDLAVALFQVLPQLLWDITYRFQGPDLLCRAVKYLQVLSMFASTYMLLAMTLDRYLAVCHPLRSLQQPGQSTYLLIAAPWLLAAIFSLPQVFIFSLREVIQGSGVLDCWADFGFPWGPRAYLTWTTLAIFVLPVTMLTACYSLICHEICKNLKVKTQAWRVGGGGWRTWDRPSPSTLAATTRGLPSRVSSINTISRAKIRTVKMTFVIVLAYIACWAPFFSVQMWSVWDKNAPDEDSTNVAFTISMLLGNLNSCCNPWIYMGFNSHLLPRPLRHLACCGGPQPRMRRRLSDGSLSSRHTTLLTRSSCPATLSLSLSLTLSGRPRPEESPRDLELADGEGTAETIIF

[12] = molecular target: Vasopressin V2 receptor (Homo sapiens, UniProt P30518); assay: Binding affinity to human vasopressin V2 receptor
[13] = system: Rattus norvegicus; assay: Decrease in oxytocin-induced uterine contractions in iv dosed non-pregnant Sprague-Dawley rat; assay type: functional, organism-based
[14] = AUC in rat at 5 mg/kg, po in HPMC/Tween formulation; assay type: ADME, organism-based; parameters: dose 5 mg/kg, route oral; conditions: plasma
[15] = Selectivity for human oxytocin receptor over vasopressin V1a receptor
[16] = molecular target: Oxytocin receptor (Rattus norvegicus) (UniProt P70536); assay: Binding affinity to recombinant oxytocin receptor
Oxytocin receptor (Rattus norvegicus), sequence (P70536 whole entry, looked up): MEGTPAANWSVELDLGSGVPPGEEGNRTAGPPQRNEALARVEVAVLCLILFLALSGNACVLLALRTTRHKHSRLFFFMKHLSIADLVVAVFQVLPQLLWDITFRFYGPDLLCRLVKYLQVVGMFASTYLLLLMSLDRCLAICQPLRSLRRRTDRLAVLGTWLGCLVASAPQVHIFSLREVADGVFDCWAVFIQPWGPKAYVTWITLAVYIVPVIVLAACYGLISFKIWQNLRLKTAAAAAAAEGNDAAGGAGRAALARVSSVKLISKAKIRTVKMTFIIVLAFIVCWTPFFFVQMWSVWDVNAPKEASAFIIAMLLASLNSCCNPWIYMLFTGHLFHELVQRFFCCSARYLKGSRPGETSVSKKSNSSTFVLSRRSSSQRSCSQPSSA

Cytochrome P450 3A4, sequence (P08684 whole entry): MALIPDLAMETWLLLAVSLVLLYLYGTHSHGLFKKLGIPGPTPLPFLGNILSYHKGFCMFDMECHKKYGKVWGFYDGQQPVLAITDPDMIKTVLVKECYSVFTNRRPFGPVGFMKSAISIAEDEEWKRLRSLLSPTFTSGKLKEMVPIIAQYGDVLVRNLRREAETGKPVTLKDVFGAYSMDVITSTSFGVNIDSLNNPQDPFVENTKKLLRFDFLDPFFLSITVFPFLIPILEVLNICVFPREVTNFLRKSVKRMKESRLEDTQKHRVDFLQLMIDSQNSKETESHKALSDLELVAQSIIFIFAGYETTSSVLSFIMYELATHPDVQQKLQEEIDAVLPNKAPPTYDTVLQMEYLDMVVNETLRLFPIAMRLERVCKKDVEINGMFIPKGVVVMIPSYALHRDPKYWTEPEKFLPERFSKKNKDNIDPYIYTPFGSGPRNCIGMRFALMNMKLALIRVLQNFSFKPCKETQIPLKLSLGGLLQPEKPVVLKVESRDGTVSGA
Vasopressin V1a receptor, sequence (P37288 whole entry): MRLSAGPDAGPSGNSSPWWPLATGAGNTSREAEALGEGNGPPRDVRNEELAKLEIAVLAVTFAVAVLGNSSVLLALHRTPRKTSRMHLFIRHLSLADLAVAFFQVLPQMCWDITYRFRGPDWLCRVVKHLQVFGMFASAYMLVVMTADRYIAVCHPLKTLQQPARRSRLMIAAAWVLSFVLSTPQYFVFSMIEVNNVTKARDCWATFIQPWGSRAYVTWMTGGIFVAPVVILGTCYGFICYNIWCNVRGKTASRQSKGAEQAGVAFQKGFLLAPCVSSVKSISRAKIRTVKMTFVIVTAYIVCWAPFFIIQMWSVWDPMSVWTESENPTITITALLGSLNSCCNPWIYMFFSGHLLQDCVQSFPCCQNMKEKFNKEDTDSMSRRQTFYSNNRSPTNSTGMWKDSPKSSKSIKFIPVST
Vasopressin V2 receptor, sequence (P30518 whole entry): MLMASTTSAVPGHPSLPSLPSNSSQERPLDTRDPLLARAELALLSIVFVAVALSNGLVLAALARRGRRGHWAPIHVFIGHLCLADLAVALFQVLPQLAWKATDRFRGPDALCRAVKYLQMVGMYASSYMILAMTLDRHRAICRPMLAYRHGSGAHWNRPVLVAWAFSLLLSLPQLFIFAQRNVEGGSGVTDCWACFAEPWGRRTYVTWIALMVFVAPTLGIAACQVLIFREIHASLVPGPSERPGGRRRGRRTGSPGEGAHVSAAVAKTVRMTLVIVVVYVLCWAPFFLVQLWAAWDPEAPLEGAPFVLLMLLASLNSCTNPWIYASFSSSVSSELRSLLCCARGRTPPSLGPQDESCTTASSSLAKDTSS

Row | Structure (SMILES) | Ki ([1]; read-out: Log Ki (converted)) | fraction unbound [3] | solubility [4] | IC50 [5] | other results
1 | Cc1nc([C@H](C(=O)N(C)C)N2C(=O)[C@@H](C3Cc4ccccc4C3)NC(=O)[C@H]2CC(C)C)cs1 | 0.398 nM |  |  |  | 
2 | CC(C)C[C@@H]1C(=O)N[C@H](C2Cc3ccccc3C2)C(=O)N1[C@@H](C(=O)NC(C)C)c1ccc(F)cc1F |  | 0.07 | < 1 µg/mL | 4000 nM | logD [2]: 3.4
3 | CC[C@H](C)[C@@H]1C(=O)N[C@H](C2Cc3ccccc3C2)C(=O)N1[C@@H](C(=O)N1CCOCC1)c1coc(C)n1 [RETOSIBAN] |  | > 0.2 | > 220 µg/mL | > 100000 nM | clearance [6]: 19 mL/min/kg; half-life [7]: 1.4 h; AUC [8]: 5470 ng·h/mL; bioavailability [9]: 100%; Ki [10]: > 12000 nM; Ki [11]: > 10000 nM; Ki [12]: 950 nM; IC50 [13]: 180 nM; ED50 ([13]; iv, read-out: ID50 (the source's name)): 0.27 mg/kg; AUC [14]: 1800 ng·h/mL
4 | CC(C)C[C@@H]1C(=O)N[C@H](C2Cc3ccccc3C2)C(=O)N1[C@@H](C(=O)NC(C)(C)C)c1ccoc1 | 12.6 nM |  |  |  | 
5 | Cc1nc([C@H](C(=O)N(C)CCO)N2C(=O)[C@@H](C3Cc4ccccc4C3)NC(=O)[C@H]2CC(C)C)co1 | 1.26 nM | > 0.2 | > 220 µg/mL | > 100000 nM | Selectivity ratio [15]: > 10; AUC [8]: 218 ng·h/mL
6 | CC(C)C[C@@H]1C(=O)N[C@H](C2Cc3ccccc3C2)C(=O)N1[C@@H](C(=O)NC(C)C)c1ccc(Br)o1 | 0.794 nM |  |  |  | 
7 | Cc1nc([C@H](C(=O)N2CCOCC2)N2C(=O)[C@@H](C3Cc4ccccc4C3)NC(=O)[C@H]2CC(C)C)co1 | 2 nM | > 0.2 | > 220 µg/mL | > 100000 nM | Selectivity ratio [15]: > 10; clearance [6]: 23 mL/min/kg; half-life [7]: 1.1 h; AUC [8]: 3630 ng·h/mL; bioavailability [9]: 33%; AUC [14]: 1190 ng·h/mL
8 | Cc1cc([C@H](C(=O)NC(C)C)N2C(=O)[C@@H](C3Cc4ccccc4C3)NC(=O)[C@H]2CC(C)C)oc1C | 1.26 nM |  |  |  | 
9 | CCOc1ccc(C[C@H]2NC(=O)CCSSC[C@@H](C(=O)N3CCC[C@H]3C(=O)N[C@@H](CCCN)C(=O)NCC(N)=O)NC(=O)[C@H](CC(N)=O)NC(=O)[C@H]([C@@H](C)O)NC(=O)[C@H]([C@@H](C)CC)NC2=O)cc1 [ATOSIBAN] ([Mpa][dY](Et)ITNCP[Orn]G-NH2; disulfide 1-6) |  |  |  |  | Ki ([1]; read-out: Ki): 11 nM; Ki [10]: 0.15 nM; Ki [11]: 44 nM; Ki [12]: 330 nM; Ki [16]: 32 nM
10 | Cc1nc([C@H](C(=O)NC(C)C)N2C(=O)[C@@H](C3Cc4ccccc4C3)NC(=O)[C@H]2CC(C)C)co1 | 1.26 nM | 0.37 | > 240 µg/mL | > 100000 nM | logD [2]: 2.5; Selectivity ratio [15]: > 10; AUC [8]: 225 ng·h/mL
11 | CC(C)C[C@@H]1C(=O)N[C@H](C2Cc3ccccc3C2)C(=O)N1[C@@H](C(=O)NC(C)C)c1ccco1 | 6.31 nM |  |  |  | 
12 | Cc1ccc([C@H](C(=O)NC(C)C)N2C(=O)[C@@H](C3Cc4ccccc4C3)NC(=O)[C@H]2CC(C)C)o1 | 1 nM | 0.04 | 34 µg/mL (≈ 73 µM) | 7000 nM | logD [2]: 3.3
13 | CC(C)C[C@@H]1C(=O)N[C@H](C2Cc3ccccc3C2)C(=O)N1[C@@H](C(=O)N(C)C)c1coc(C2CC2)n1 | 0.794 nM |  |  |  | 
14 | CNC(=O)c1ccc([C@H](C(=O)NC(C)C)N2C(=O)[C@@H](C3Cc4ccccc4C3)NC(=O)[C@H]2CC(C)C)o1 | 39.8 nM |  |  |  | 
15 | Cc1nc([C@H](C(=O)N(C)C)N2C(=O)[C@@H](C3Cc4ccccc4C3)NC(=O)[C@H]2CC(C)C)c(C)o1 | 3.16 nM |  |  |  | 
16 | CC(C)C[C@@H]1C(=O)N[C@H](C2Cc3ccccc3C2)C(=O)N1[C@@H](C(=O)NC(C)C)c1coc(C(F)(F)F)n1 | 0.158 nM |  |  |  | 
17 | Cc1nc([C@H](C(=O)N2CCC2)N2C(=O)[C@@H](C3Cc4ccccc4C3)NC(=O)[C@H]2CC(C)C)co1 | 1.58 nM | > 0.2 | > 220 µg/mL | > 100000 nM | Selectivity ratio [15]: > 10; clearance [6]: 35 mL/min/kg; half-life [7]: 1.4 h; AUC [8]: 1070 ng·h/mL; bioavailability [9]: 45%
18 | CC[C@@H](C)[C@@H]1C(=O)N[C@H](C2Cc3ccccc3C2)C(=O)N1[C@@H](C(=O)N1CCOCC1)c1coc(C)n1 |  | > 0.2 | > 220 µg/mL | > 100000 nM | clearance [6]: 14 mL/min/kg; half-life [7]: 1.3 h; AUC [8]: 4200 ng·h/mL; bioavailability [9]: 69%
19 | CC(C)C[C@@H]1C(=O)N[C@H](C2Cc3ccccc3C2)C(=O)N1[C@@H](C(=O)NC(C)C)c1ccc(-c2ccccn2)s1 | 2.51 nM |  |  |  | 
20 | CC(C)C[C@@H]1C(=O)N[C@H](C2Cc3ccccc3C2)C(=O)N1[C@@H](C(=O)NC(C)C)c1ccc(C(F)(F)F)o1 | 0.1 nM | 0.03 | < 1 µg/mL | 3000 nM | logD [2]: 3.6
21 | CC(C)C[C@@H]1C(=O)N[C@H](C2Cc3ccccc3C2)C(=O)N1[C@@H](C(=O)NC(C)C)c1cccs1 | 6.31 nM |  |  |  | 
22 | CC(C)C[C@@H]1C(=O)N[C@H](C2Cc3ccccc3C2)C(=O)N1[C@@H](C(=O)NC(C)C)c1ccc(Br)s1 | 2 nM | 0.01 | < 1 µg/mL | 1000 nM | logD [2]: 3.7
23 | CC(C)C[C@@H]1C(=O)N[C@H](C2Cc3ccccc3C2)C(=O)N1[C@@H](C(=O)NC(C)C)c1cc(Br)cs1 | 1 nM |  |  |  | 
